Results taken from ChEMBL document CHEMBL4350997, “The synthesis and anticancer activity of 2-styrylquinoline derivatives. A p53 independent mechanism of action” (Eur J Med Chem, 2019).
Values after ≈ are worked out from the molar mass of the structure shown.

Assays:
MCF7 = test: Anticancer activity against human MCF7 cells assessed as inhibition of cell proliferation; assay type: functional, cell-based
HepG2 = test: Anticancer activity against human HepG2 cells assessed as inhibition of cell proliferation; assay type: functional, cell-based
NHDF = test: Cytotoxicity against human NHDF cells incubated for 72 hrs by MTS assay; assay type: cell-based
HCT-116 [1] = test: Anticancer activity against human HCT116 cells assessed as inhibition of cell proliferation
HCT-116 [2] = test: Cytotoxicity against human HCT116 cells deficient in p53 incubated for 72 hrs by MTS assay; conditions: HCT-116, 72 h
HCT-116 [3] = test: Cytotoxicity against human HCT116 cells expressing wild type p53 incubated for 72 hrs by MTS assay; conditions: HCT-116, 72 h
ASPC1 = test: Cytotoxicity against human AsPC1 cells deficit of P53 gene incubated for 72 hrs by MTS assay; assay type: functional, cell-based; conditions: ASPC1, 72 h
PANC-1 = test: Cytotoxicity against human PANC1 cells harboring mutant TP53 gene incubated for 72 hrs by MTS assay; assay type: functional, cell-based; conditions: PANC-1, 72 h
U-251 = test: Cytotoxicity against human U251 cells harboring mutant TP53 gene incubated for 72 hrs by MTS assay; assay type: functional, cell-based; conditions: U-251, 72 h
HCT-116 [4] = test: Anticancer activity against human HCT116 cells deficient in p53 assessed as inhibition of cell proliferation; assay type: functional, cell-based

SMILES | IC50 (NHDF) [µM] | IC50 (HCT-116 [2]) [µM] | IC50 (HCT-116 [3]) [µM] | further results
COc1cccc2c(Nc3ccc(/C(C)=N/O)cc3)cc(/C=C/c3ccccc3)nc12 | – | – | – | IC50 (MCF7): > 4 mg/L
CN(C)c1ccc(/C=C/c2cc(-c3nnc(N)s3)c3cc(Br)ccc3n2)cc1 | – | – | – | IC50 (HepG2): 9 mg/L (≈ 19.9 µM)
CC(=O)Oc1ccccc1/C=C/c1ccc2cccc(O)c2n1 | 6.92 | 13.5 | 7.32 | IC50 (HCT-116 [1]): 7.3 µM
COc1cccc2c1C(=O)c1c(O)c3c(c(O)c1C2=O)C[C@@](O)(C(=O)CO)C[C@@H]3O[C@H]1C[C@H](N)[C@H](O)[C@H](C)O1 [DOXORUBICIN] | 0.14 | 0.38 | 0.34 | IC50 (ASPC1): 0.86 µM; IC50 (PANC-1): 0.73 µM; IC50 (U-251): 0.05 µM
Oc1cccc2ccc(/C=C/c3ccccc3F)nc12 | – | – | – | IC50 (HCT-116 [4]): 8.4 µM
Oc1ccc(/C=C/c2ccc3cccc(O)c3n2)cc1 | > 25 | 16.6 | 13.5 | –
Oc1cccc2ccc(/C=C/c3c(F)cccc3Cl)nc12 | – | > 25 | > 25 | –
O=c1[nH]cc(F)c(=O)[nH]1 [FLUOROURACIL] | > 25 | 4.69 | 4.42 | –
COc1ccc(/C=C/c2nc(NCCCN(C)C)c3ccccc3n2)cc1 | 12.3 | 26.3 | 18.6 | IC50 (PANC-1; read-out: IC50): > 25 µM; IC50 (U-251): 18.8 µM
